Key:
Type in all cases: functional
[1] = tested on: Mus musculus; assay: Cognition enhancing activity was evaluated by mouse passive-avoidance test using Scopolamine as amnesing drug administered intraperitoneally
[2] = species: Mus musculus; assay: Cognition enhancing activity was evaluated by mouse passive-avoidance test using Scopolamine as amnesing drug after 1st day
[3] = species: Mus musculus; assay: Cognition enhancing activity was evaluated by mouse passive-avoidance test using Scopolamine as amnesing drug after 2nd day
[4] = species: Mus musculus; assay: Difference between entry latency of cognition enhancing activity between 2nd day and 1st day

CCC(=O)N1CCN(C(=O)c2ccccc2)CC1
Min effective dose [1]: 0.01 mg/kg

CCC(=O)N1CCC(NS(=O)(=O)c2ccc(F)cc2)CC1
Entry latency [2]: 15.6 s | Entry latency [3]: 108.2 s | Entry latency [4]: 103 s | Min effective dose [1]: 10 mg/kg

CCC(=O)N1CCC(NS(=O)(=O)C(C)C)CC1
Entry latency [2]: 14.5 s | Entry latency [3]: 96.9 s | Entry latency [4]: 82.4 s | Min effective dose [1]: 10 mg/kg

CC(=O)N1CCN(C(=O)c2ccccc2)CC1
Min effective dose [1]: 10 mg/kg

CC(=O)NC1CCN(C(=O)c2ccccc2)CC1
Entry latency [2]: 12.8 s | Entry latency [3]: 113.5 s | Entry latency [4]: 100.7 s | Min effective dose [1]: 10 mg/kg

CCC(=O)NC1CCN(S(=O)(=O)C(C)C)CC1
Entry latency [2]: 14.2 s | Entry latency [3]: 102.8 s | Entry latency [4]: 88.6 s | Min effective dose [1]: 10 mg/kg

CCC(=O)NC1CCN(S(=O)(=O)c2ccc(F)cc2)CC1
Entry latency [2]: 17.6 s | Entry latency [3]: 103.4 s | Entry latency [4]: 85.8 s | Min effective dose [1]: 0.1 mg/kg

CC(=O)N1CCC(NS(=O)(=O)c2ccc(F)cc2)CC1
Entry latency [2]: 23.5 s | Entry latency [3]: 126.8 s | Entry latency [4]: 92.6 s | Min effective dose [1]: 0.1 mg/kg

CC(=O)NC1CCN(S(=O)(=O)C(C)C)CC1
Entry latency [2]: 14.3 s | Entry latency [3]: 89.7 s | Entry latency [4]: 75.4 s | Min effective dose [1]: 1 mg/kg

CC(=O)NC1CCN(S(=O)(=O)c2ccc(F)cc2)CC1
Entry latency [2]: 14.5 s | Entry latency [3]: 90.6 s | Entry latency [4]: 76.1 s | Min effective dose [1]: 0.01 mg/kg

NC(=O)CN1CCCC1=O
Min effective dose [1]: 30 mg/kg

CN1[C@@H]2C[C@@H](OC(=O)[C@H](CO)c3ccccc3)C[C@H]1[C@@H]1O[C@@H]12 [SCOPOLAMINE]
Entry latency [3]: 44.5 s | Entry latency [4]: 27.9 s | Min effective dose [1]: 1.5 mg/kg

CCC(=O)NC1CCN(C(=O)c2ccccc2)CC1
Entry latency [2]: 18 s | Entry latency [3]: 121 s | Entry latency [4]: 103 s | Min effective dose [1]: 0.1 mg/kg

CC(=O)N1CCN(S(=O)(=O)c2ccc(F)cc2)CC1
Min effective dose [1]: 0.01 mg/kg

CCC(=O)N1CCN(S(=O)(=O)c2ccc(F)cc2)CC1
Min effective dose [1]: 0.01 mg/kg

CCC(=O)N1CCC(NC(=O)c2ccccc2)CC1
Entry latency [2]: 19.7 s | Entry latency [3]: 122.8 s | Entry latency [4]: 103.1 s | Min effective dose [1]: 0.1 mg/kg

CC(=O)N1CCC(NS(=O)(=O)C(C)C)CC1
Entry latency [2]: 15.1 s | Entry latency [3]: 99.3 s | Entry latency [4]: 84.2 s | Min effective dose [1]: 10 mg/kg
